Measurements: US20050192340A1, “Simvastatin formulations and methods of making same” (priority 2003, published 2005)

Assay: In vitro hydrolysis of simvastatin formulations under simulated gastric conditions (dissolution in 0.1N HCl, HPLC)
Type: physicochemical
Settings: 37° C.
Procedure: Generally, the simvastatin formulations were prepared by heating menthol to about 60° C. while stirring and adding a surface active agent (either TWEEN® or Poloxamer) and sodium ducosate or sodium lauryl sulfate. The mixture was stirred until all the components dissolved to form a melt. Thereafter, the melt was cooled to about 50° C., simvastatin was added during stirring until dissolved, the mixture was cooled to room temperature, and dispensed into capsules. After about an hour the liquid in the capsule had gelled. Each capsule was filled with enough formulation to have a dose of 20 mg of simvastatin.
Each formulation was tested by dissolution in 50 ml of 0.1N HCl at 37° C. with stirring. […] It was determined that the retention times for the simvastatin hydroxyl acid was 3.6 minutes and simvastatin lactone was 5.7 minutes.

CCC(C)(C)C(=O)O[C@H]1C[C@@H](C)C=C2C=C[C@H](C)[C@H](CCC3C[C@@H](O)CC(=O)O3)[C@H]21 (stereo partly drawn) [Simvastatin 100%]
0%: % hydrolyzed Simvastatin (0.1N HCl, 60 min, weight % hydrolyzed simvastatin from the initial simvastatin amount) | % converted to hydroxyl acid (0.1N HCl, 60 min, weight % of the total dissolved simvastatin in the open hydroxy acid form) | % Dissolved 60 min 0.1 N HCl (50 ml 0.1N HCl, stirring, total dissolved simvastatin (closed lactone + open hydroxy acid form), 20 mg capsule)
